Entries after “also recorded” stand apart in the source; their conditions may differ.

Holding throughout (assay type): cell-based, human
Data set [1] deals with VTA-like spheroids. The experiment in a line: FLIPR calcium activity with Cal6 dye, control compounds / DAMGO (Example 3). The note with it: VTA-like spheroids in Cal6 dye; 10 μM DAMGO; day 21. On the procedure:
Viruses and dyes: To assess calcium activity, the calcium dye, Cal6 (Molecular Devices), and genetically encoded calcium indicator, GCaMP6f (Addgene, cat #100836-AAV9) were used. Cal6 was used according to manufacturer's instructions and 10 mL of maintenance media was added to each vial. Two hours before activity was recorded, half of the spheroid media was exchanged for media with Cal6. The plates were covered in foil and placed in the incubator at 37° C. during the 2-hour (hr) incubation period. Since all viruses used were adeno-associated viruses (AAV), they were added to the media on day 7 to allow for 2-weeks expression prior to recording or testing. All viruses were added to the media at 2e5 multiplicity of infection (MOI). GCaMP6f infection occurred via an adeno-associated virus serotype 9 (AAV9) expressed under the CAG promoter for expression in both neurons and astrocytes. Designer receptors exclusively activated by designer drugs (DREADDs) viruses were used to stimulate and inhibit neuronal activity within spheroids. Both viruses were retrograde AAVs expressed under the human Synapsin promoter for expression in neurons and fused with an mCherry fluorophore. The DREADDs viruses either inserted the designer receptor hM4D(Gi), an inhibitory G-protein coupled receptor, or hM3D(Gq), a stimulatory G-protein coupled receptor. Clozapine-N-oxide (CNO, Tocris cat #4936) was suspended in dimethyl sulfoxide (DMSO) and used as the designer drug to activate the DREADDs viruses. CNO was tested at 1 and 10 μM, with data reported from the 1 μM concentration.
Fluorescent Imaging plate Reader (FLIPR): The FLIPR Penta (Molecular Devices) was used to assess calcium fluorescence across the 384-well plate simultaneously and to observe changes after treatment with compounds. The evening before calcium activity was measured, plates were sealed with parafilm and centrifuged at 1485×g for 2-min to get spheroids to the bottom of the well in a centered position. On the day of recording, the plate used for recording was placed in the read plate position inside of the FLIPR following the 2-hour Cal6 incubation at 37° C. Standard filter sets were used for Cal6 imaging with excitation set at 470-495 and emission at 515-575 nm. Fluorescent image reads were taken every 0.6 seconds for all plates, with exposure time of 0.03 and 50% excitation intensity. Recordings from the initial seven plates consisted of 1000 reads and were 10-min recordings with 2.5 gain, while the final two plates consisted of 500 reads (5-min recordings) with a gain of 2. Baseline recordings were taken across all plates and, if applicable, more recordings were obtained 1-, 30-, 60-, and/or 90-min after compound treatment. In between recordings, plates were wrapped in foil and placed back in the incubator at 37° C.
DAMGO was reconstituted in water at a 1 mM concentration and diluted in media to 20 µM such that spheroids would be treated with a final concentration of 10 μM after the half media exchange. Two aspects of OUD were modeled, chronic treatment along with opioid withdrawal. […]
384 Pin Tool: A 384 well pin tool (Rexroth) was used to transfer compounds simultaneously to the spheroid plate. […] Compound transfer via the 384 well pin tool occurred after the baseline recordings with the fluorescent imaging plate reader (FLIPR). […]

Data set [2] has as its system PFC-like spheroids. The experiment in a line: FLIPR calcium activity with Cal6 dye, control compounds / DAMGO / AD compounds (Example 3). As to conditions: 10 μM DAMGO; for effect on peak count and peak spacing: recording 30-min later, then naloxone.
Data set [3] has as its system PFC-like spheroids. Nature of the data set: Confocal (Phenix Plus) calcium recordings, opioid use disorder model. The note with it: PFC-like spheroids expressing GCaMP6f; 10 μM DAMGO; day 21. On the procedure:
(§1) Confocal Imaging: The Opera Phenix Plus High-Content Imaging System (Perkin Elmer) spinning disk confocal was used to record calcium activity from spheroids in individual wells. Prior to recording, the stage was pre-warmed to 37° C., and the carbon dioxide was set to 5%. Recordings were obtained both from spheroids expressing GCaMP6f along with those incubated in Cal6 dye. Recordings were captured with a 20× water immersion objective […] from the bottom of the well, and were obtained at a frame rate of 1.6 frames/sec with 480 frames total, making the recordings 5-min. The protocol was set to record well to well such that recordings were automated but taken from one spheroid at a time before recording from subsequent wells. […]
(§2) For peak detection data obtained from the Phenix Plus confocal microscope, image sequences were stored in and exported from Columbus Image Data Storage and Analysis as single plane TIFFs. […] Prior to peak detection analysis, the T-function, F div F0, in ImageJ was used to obtain calcium signals normalized to background fluorescence. […] The correlation matrix was used to describe how synchronous the calcium activity within a spheroid was, and a synchrony score was measured by calculating the average correlation coefficient across the matrix. […]

Data set [4] concerns VTA-like spheroids. The data set is described as above. As to conditions: VTA-like spheroids expressing GCaMP6f; 10 μM DAMGO; day 21. The procedure: as §1, §2
Data set [5] relates to PFC-like and VTA-like spheroids. The experiment in a line: 3D Cell Titer Glo spheroid viability. The note with it: no DAMGO pre-treatment vs chronic DAMGO vs DAMGO withdrawal. On the procedure:
3D Cell Titer Glo: To measure spheroid cell viability across disease models and after compound treatment, the CellTiter-Glo 3D Cell Viability Assay (Promega, cat #G9681) was used according to the manufacturer's instructions. CellTiter-Glo 3D Reagent was thawed overnight at 4° C. and brought to room temperature (RT) for 20-min before use. After the FLIPR assay, 30 μL of CellTiter-Glo 3D Reagent was added to the spheroid plate and was mixed by shaking for 5-min at RT followed by a 25-min incubation period off the shaker at RT (about 25° C.). Luminescence was read using a PHERAstar FSX microplate reader (BMG LabTech) to measure amount of ATP present, indicating metabolically active cells.

Take `C[C@@H](NC(=O)[C@@H](N)Cc1ccc(O)cc1)C(=O)NCC(=O)N(C)[C@@H](Cc1ccccc1)C(=O)NCCO` [DAMGO, [D-Ala^2, N-MePhe^4, Gly-ol]-enkephalin]: the “effect of chronic DAMGO / DAMGO withdrawal on baseline peak count, amplitude, width (FLIPR)” value in the data set with VTA-like spheroids [1] was “chronic DAMGO treatment increased peak count in VTA-like spheroids; also recorded: unaffected in VTA-like spheroids; also recorded: reduced in VTA-like spheroids”; with PFC-like spheroids [2] (PFC-like spheroids in Cal6 dye, day 21), “peak count was reduced by chronic DAMGO in PFC-like spheroids; also recorded: Peak amplitude was reduced by DAMGO withdrawal in PFC-like spheroids; also recorded: peak width was increased by chronic DAMGO in PFC-like spheroids”. Besides, the “effect on peak count and peak spacing” value in the data set on PFC-like spheroids [2] (PFC-like chronic DAMGO-treated spheroids) is reported as “chronic DAMGO-treated spheroids treated with either DMSO or DAMGO showed significant reductions in peak count”; in the data set with PFC-like spheroids [2] (PFC-like control spheroids), “significant reduction in peak count was observed in control spheroids acutely treated with DAMGO; also recorded: acute DAMGO treatment in control spheroids increased peak spacing”. The “effect of chronic DAMGO / DAMGO withdrawal on baseline peak count, amplitude, width, synchrony (confocal)” value in the data set with PFC-like spheroids [3] is reported as “peak count was reduced by chronic DAMGO treatment in PFC-like spheroids; also recorded: synchrony was unaffected in PFC-like spheroids; also recorded: DAMGO withdrawal reduced peak amplitude in VTA-like but not PFC-like spheroids; also recorded: Chronic DAMGO increased peak width in PFC-like but not VTA-like spheroids; also recorded: DAMGO withdrawal did not impact peak width in either spheroid type”; with VTA-like spheroids [4], “increased by DAMGO withdrawal in VTA-like spheroids; also recorded: DAMGO withdrawal reduced peak amplitude in VTA-like but not PFC-like spheroids; also recorded: Chronic DAMGO increased peak width in PFC-like but not VTA-like spheroids; also recorded: DAMGO withdrawal did not impact peak width in either spheroid type; also recorded: DAMGO withdrawal reduced synchrony in VTA-like spheroids”. For the same molecule, the “spheroid viability (3D CTG)” value in data set [5] is given as “spheroid viability was similar”.

For the origin of these results see US20240141291A1, “FUNCTIONAL BRAIN REGION-SPECIFIC NEURAL SPHEROIDS AND METHODS OF USE” (THE UNITED STATES OF AMERICA, AS REPRESENTED BY THE …, priority 2021, published 2024).
